Converted amounts (≈) assume the structure as drawn. Where two headings read alike, the source gives them in different places. Blank lines part the entries; values can stand above or below the compound they belong to.
Experiments:
[1] = test system: protein product expressed by the gene target; settings: cited from earlier work
[2] = Kinetic solubility in aqueous buffer pH 7.4 by total chemiluminescent nitrogen determination (Analiza); settings: aqueous buffer, pH 7.4, aqueous buffer, kinetic from dmso stock
[3] = test system: BV2 (mouse microglia) cell line; assay: pHrodo-myelin phagocytosis/cell viability high content imaging assay: phagocytosis signal; assay type: cell-based
Procedure, shortened: (§1)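 Cells receive pHrodo-myelin, then are imaged at high content approximately 22 hours later. Phagocytosis signal and viability are captured in the same run. Three measurements are extracted per well.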

[4] = test system: HMC3 (human microglia) cell line; assay: as above; assay type: cell-based; settings: 10 μM
Procedure, shortened: as §1

cellular system = settings: published cellular activity at 10 μM; cited from earlier work
physchem = settings: pH 7.4, aqueous buffer, kinetic from dmso stock
[5] = test system: BV2 (mouse microglia) cell line; assay: pHrodo-myelin phagocytosis/cell viability high content imaging assay: viability (cell count, nuclear area, nuclear intensity); settings: 10 μM
Procedure, shortened: (§2)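 Duplicate single-point screen at 10 μM over 48 h, combined with pHrodo-myelin phagocytosis during the last 20 h. Cytotoxicity is taken from imaged cell counts and nuclear intensity changes, normalized to untreated wells as % control.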

[6] = test system: HMC3 (human microglia) cell line; assay: as above; settings: 10 μM
Procedure, shortened: as §2

[7] = gene target APP, ref PubMed 22323718

Structure (SMILES): Cl.NC(=O)c1cnc(N[C@@H]2CCCC[C@@H]2N)nc1Nc1cccc(-n2nccn2)c1 [P505-15 (PRT06207 HCl)]
Inhibition of mouse microglial phagocytosis at 10 μM (<70% control) ([3]; BV2 cells, 10 μM): Y (The compound was found to inhibit phagocytosis (response threshold: <70% control) when murine immortalized microglial cells were dosed at 10 μM (Y: yes)) | Inhibition of human microglial phagocytosis at 10 μM (<70% control) ([4]; HMC3 cells): Y (The compound was found to inhibit phagocytosis (response threshold: <70% control) when human immortalized microglial cells were dosed at 10 μM (Y: yes)) | Reported as cell active (<10 μM) (cellular system): Y (Published data supports that the compound is active in a cellular system when dosed at 10 μM (Y/N)) | solubility kinetic (physchem): 118 µM

Structure (SMILES): O=C(N/N=C/c1ccc(Cl)cc1)c1ccccc1 [Compound 1e]
Reported on-target biochemical potency ([1]; gene target CTSH, ref PubMed 25181676): 440 nM | solubility kinetic [2]: 37.8 µM (≈ 9.78 µg/mL)

Structure (SMILES): COc1nc(OCc2cccc(-c3ccccc3)c2C)ccc1CNCCNC(C)=O.Cl [BMS-202]
Mouse microglial cytotoxicity at 10 μM (<70% control) ([5]; BV2 cells, cell count <70% control): Y (The compound was found to be cytotoxic (cell count threshold: <70% control) when murine immortalized microglial cells were dosed at 10 μM (Y: yes)) | Human microglial cytotoxicity at 10 μM (<70% control) ([6]; HMC3 cells, cell count <70% control): Y (The compound was found to be cytotoxic (cell count threshold: <70% control) when human immortalized microglial cells were dosed at 10 μM (Y: yes)) | Inhibition of mouse microglial phagocytosis at 10 μM (<70% control) ([3]; BV2 cells, 10 μM): Y (The compound was found to inhibit phagocytosis (response threshold: <70% control) when murine immortalized microglial cells were dosed at 10 μM (Y: yes)) | Inhibition of human microglial phagocytosis at 10 μM (<70% control) ([4]; HMC3 cells): Y (The compound was found to inhibit phagocytosis (response threshold: <70% control) when human immortalized microglial cells were dosed at 10 μM (Y: yes)) | Reported as cell active (<10 μM) (cellular system): Y (Published data supports that the compound is active in a cellular system when dosed at 10 μM (Y/N)) | solubility kinetic (physchem): 97.9 µM

Structure (SMILES): O=C(Nc1ccc([N+](=O)[O-])cc1Cl)c1cc(Cl)ccc1O [Niclosamide]
Inhibition of human microglial phagocytosis at 10 μM (<70% control) ([4]; HMC3 cells): Y (The compound was found to inhibit phagocytosis (response threshold: <70% control) when human immortalized microglial cells were dosed at 10 μM (Y: yes)) | Reported as cell active (<10 μM) (cellular system): Y (Published data supports that the compound is active in a cellular system when dosed at 10 μM (Y/N)) | solubility kinetic (physchem): 17.5 µM (≈ 5.72 µg/mL)

Structure (SMILES): CN1C(=N)N[C@](C)(c2cc(NC(=O)c3ccc(F)cn3)ccc2F)CS1(=O)=O [Verubecestat (MK-8931)]
Reported on-target biochemical potency (nM): BACE1 ([1]; gene target BACE1, ref PubMed 27418961, 27023706): 1.8 nM | Reported on-target biochemical potency (nM): BACE2 ([1]; gene target BACE2, ref PubMed 27418961, 27023706): 0.37 nM | solubility kinetic [2]: 154 µM (≈ 63.3 µg/mL)

Structure (SMILES): CCOC(=O)N1c2ccc(C(F)(F)F)cc2[C@@H](N(Cc2cc(C(F)(F)F)cc(C(F)(F)F)c2)C(=O)OC)C[C@H]1CC [Torcetrapib]
Reported on-target biochemical potency ([1]; gene target CETP, ref Probe Miner, PubMed 17984165, 19164467): 7.72 nM | solubility kinetic [2]: < 1.1 µM

Structure (SMILES): CN(C)c1ccc2c(c1)Sc1cc(N(C)C)ccc1N2.CS(=O)(=O)O.CS(=O)(=O)O [TRx0237 (LMTX) mesylate]
Mouse microglial cytotoxicity at 10 μM (<70% control) ([5]; BV2): Y (The compound was found to be cytotoxic (cell count threshold: <70% control) when murine immortalized microglial cells were dosed at 10 μM (Y: yes)) | Human microglial cytotoxicity at 10 μM (<70% control) ([6]; HMC3): Y (The compound was found to be cytotoxic (cell count threshold: <70% control) when human immortalized microglial cells were dosed at 10 μM (Y: yes)) | Inhibition of human microglial phagocytosis at 10 μM (<70% control) ([4]; HMC3): Y (The compound was found to inhibit phagocytosis (response threshold: <70% control) when human immortalized microglial cells were dosed at 10 μM (Y: yes)) | Reported on-target biochemical potency ([1]; target gene MAPT, ref PubMed 26809554): 160 nM | solubility kinetic [2]: 115 µM

Structure (SMILES): CCN(CC)Cc1ccc(C(=O)N(CCc2ccccc2OC)[C@@H]2CCNC2)cc1.Cl.Cl [PF429242]
Stimulation of mouse microglial phagocytosis at 10 μM (>150% control) ([3]; BV2 cells, 10 μM): Y (The compound was found to stimulate phagocytosis (response threshold: >150% control) when murine immortalized microglial cells were dosed at 10 μM (Y: yes)) | Inhibition of human microglial phagocytosis at 10 μM (<70% control) ([4]; HMC3 cells): Y (The compound was found to inhibit phagocytosis (response threshold: <70% control) when human immortalized microglial cells were dosed at 10 μM (Y: yes)) | Reported as cell active (<10 μM) (cellular system): Y (Published data supports that the compound is active in a cellular system when dosed at 10 μM (Y/N)) | solubility kinetic (physchem): 131 µM

Structure (SMILES): CC(C)[C@H](O)C(=O)N[C@@H](C)C(=O)N[C@@H]1C(=O)N(C)CCc2ccccc21 [Semagacestat (LY450139)]
Stimulation of mouse microglial phagocytosis at 10 μM (>150% control) ([3]; BV2, 10 μM): Y (The compound was found to stimulate phagocytosis (response threshold: >150% control) when murine immortalized microglial cells were dosed at 10 μM (Y: yes)) | Reported on-target biochemical potency (nM): Aβ38 [1, 7]: 12 nM | Reported on-target biochemical potency (nM): Aβ40 [1, 7]: 12.1 nM | Reported on-target biochemical potency (nM): Aβ42 [1, 7]: 10.9 nM | solubility kinetic [2]: 176 µM (≈ 63.8 µg/mL)

Structure (SMILES): O=c1ncn2nc(Sc3ccc(F)cc3F)ccc2c1-c1c(Cl)cccc1Cl [Neflamapimod (VX-745)]
Stimulation of mouse microglial phagocytosis at 10 μM (>150% control) ([3]; 10 μM, BV2): Y (The compound was found to stimulate phagocytosis (response threshold: >150% control) when murine immortalized microglial cells were dosed at 10 μM (Y: yes)) | Reported on-target biochemical potency ([1]; target MAPK11, ref PubMed 24900264): 220 nM | Reported on-target biochemical potency ([1]; target MAPK14, ref PubMed 24900264): 10 nM | solubility kinetic [2]: 48.1 µM (≈ 21 µg/mL)

Structure (SMILES): Cc1ccc(NC(=O)c2ccc(CN3CCN(C)CC3)cc2)cc1Nc1nc(-c2cccnc2)cs1 [Masitinib (AB1010)]
Mouse microglial cytotoxicity at 10 μM (<70% control) ([5]; BV2): Y (The compound was found to be cytotoxic (cell count threshold: <70% control) when murine immortalized microglial cells were dosed at 10 μM (Y: yes)) | Inhibition of mouse microglial phagocytosis at 10 μM (<70% control) ([3]; 10 μM, BV2): Y (The compound was found to inhibit phagocytosis (response threshold: <70% control) when murine immortalized microglial cells were dosed at 10 μM (Y: yes)) | Inhibition of human microglial phagocytosis at 10 μM (<70% control) ([4]; HMC3): Y (The compound was found to inhibit phagocytosis (response threshold: <70% control) when human immortalized microglial cells were dosed at 10 μM (Y: yes)) | Reported on-target biochemical potency ([1]; target KIT, ref PubMed PMC2746281): 200 nM | Reported on-target biochemical potency ([1]; target LYN, ref PubMed PMC2746281): 510 nM | Reported on-target biochemical potency ([1]; target PDGFRα, ref PubMed PMC2746281): 540 nM | Reported on-target biochemical potency ([1]; target PDGFRβ, ref PubMed PMC2746281): 800 nM | solubility kinetic [2]: 93.9 µM (≈ 46.8 µg/mL)

Continued, in another order:

solubility kinetic [2]: 1.9 µM (≈ 0.805 µg/mL)
Structure (SMILES): N#CC(CCCN1CCN(/N=C/c2cccnc2)CC1)(c1ccccc1)c1ccccc1 [SC-26196]
Reported on-target biochemical potency ([1]; gene target FADS2, ref PubMed 18719641, 23112819, 10419129): 200 nM

solubility kinetic [2]: 31.1 µM (≈ 9.81 µg/mL)
Structure (SMILES): C[C@H](N/C(=N\c1cccc2ncccc12)NC#N)c1ccccc1 [A-804598]
Inhibition of human microglial phagocytosis at 10 μM (<70% control) ([4]; HMC3): Y (The compound was found to inhibit phagocytosis (response threshold: <70% control) when human immortalized microglial cells were dosed at 10 μM (Y: yes)) | Reported on-target biochemical potency ([1]; target P2X7, ref PubMed 18602931, 28716092, 28871219, 29934546): 10 nM

Reference: paper PMC9019904, “AD Informer Set: Chemical tools to facilitate Alzheimer's disease drug discovery” (Alzheimer's & Dementia : Translational Research & Clinical …, 2022)
